Test results: patent publication US12252524B2, “GIP/GLP1 co-agonist compounds” (Eli Lilly and Company, priority 2018, dated 2025)
Numbered stars: 1 amine (or outer) side, 2 acyl side, 3 side chain; on linkers, the order of the positions; unused ones are H or OH. Square brackets hold non-standard residues; d marks the D form. Side chains are listed from the residue outwards. Peptide text beside a SMILES is read from it. * marks the point of attachment. C20 diacid = O=C(O)CCCCCCCCCCCCCCCCCCC(=O)*; C18 diacid = O=C(O)CCCCCCCCCCCCCCCCC(=O)*; αMePhe(2-F) = C[C@](N)(Cc1ccccc1F)C(=O)O; γGlu = O=C(O)[C@H](CCC(=O)[*:2])N[*:1]; αMeF = C[C@](N)(Cc1ccccc1)C(=O)O; 3Pal = N[C@@H](Cc1cccnc1)C(=O)O; 4Pal = N[C@@H](Cc1ccncc1)C(=O)O; αMeL = CC(C)C[C@](C)(N)C(=O)O; AEEA = NCCOCCOCC(=O)O; Aib = CC(C)(N)C(=O)O

Assays:
human GIP receptor = biological target: T1, human GIP receptor (Homo sapiens, UniProt P48546); assay: [125I]-GIP binding (SPA), human GIP receptor; conditions: read-out: hGIPR Ki, nM (SEM, n)
T1 construct: expressed in transfected cells; crude membranes
T1 sequence (P48546 22-466): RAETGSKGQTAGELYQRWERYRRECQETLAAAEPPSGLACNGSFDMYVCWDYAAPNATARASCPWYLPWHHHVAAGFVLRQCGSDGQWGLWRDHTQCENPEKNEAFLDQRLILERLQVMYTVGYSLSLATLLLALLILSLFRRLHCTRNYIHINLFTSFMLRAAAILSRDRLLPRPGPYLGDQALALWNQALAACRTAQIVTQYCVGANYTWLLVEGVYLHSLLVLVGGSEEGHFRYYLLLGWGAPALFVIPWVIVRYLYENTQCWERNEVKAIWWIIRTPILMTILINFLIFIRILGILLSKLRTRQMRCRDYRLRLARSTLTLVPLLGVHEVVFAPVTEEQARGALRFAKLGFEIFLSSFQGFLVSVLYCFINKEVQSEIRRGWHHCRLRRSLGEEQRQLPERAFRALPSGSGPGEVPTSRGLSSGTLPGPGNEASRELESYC
Experimental: (§1) Two methods are used for the preparation of crude cell membranes.
(§2) Method 1: Frozen cell pellets are lysed on ice in hypotonic buffer containing 50 mM Tris HCl, pH 7.5, and Roche Complete™ Protease Inhibitors with EDTA. The cell suspension is disrupted using a glass Potter-Elvehjem homogenizer fitted with a Teflon® pestle for 25 strokes. The homogenate is centrifuged at 4° C. at 1100×g for 10 minutes. The supernatant is collected and stored on ice while the pellets are resuspended in homogenization buffer and rehomogenized as described above. The homogenate is centrifuged at 1100×g for 10 minutes. The second supernatant is combined with the first supernatant and centrifuged at 35000×g for 1 hour at 4° C. The resulting membrane pellet is resuspended in homogenization buffer containing protease inhibitors at approximately 1 to 3 mg/mL, quick frozen in liquid nitrogen and stored as aliquots in a−80° C. freezer until use.
(§3) Method 2: Frozen cell pellets are lysed on ice in hypotonic buffer containing 50 mM Tris HCl, pH 7.5, 1 mM MgCl2, Roche Complete™ EDTA-free Protease Inhibitors and 25 units/ml DNAse I (Invitrogen). The cell suspension is disrupted using a glass Potter-Elvehjem homogenizer fitted with a Teflon® pestle for 20 to 25 strokes. The homogenate is centrifuged at 4° C. at 1800×g for 15 minutes. The supernatant is collected and stored on ice while the pellets are resuspended in homogenization buffer (without DNAse I) and rehomogenized as described above. The homogenate is centrifuged at 1800×g for 15 minutes. The second supernatant is combined with the first supernatant and centrifuged an additional time at 1800×g for 15 minutes. The overall supernatant is then centrifuged at 25000×g for 30 minutes at 4° C. The resulting membrane pellet is resuspended in homogenization buffer (without DNAse I) containing protease inhibitors at approximately 1 to 3 mg/mL and stored as aliquots in a−80° C. freezer until use.
The binding buffer contains 25 mM HEPES, pH 7.4, 2.5 mM CaCl2, 1 mM MgCl2, 0.1% (w/v) bacitracin, 0.003% (w/v) TWEEN©-20, and Roche Complete™ Protease Inhibitors without EDTA. Peptides and GIP are thawed and 3 fold serially diluted in 100% DMSO (10 point concentration response curves). […] Plates are sealed and mixed on a plate shaker (setting 6) for 1 minute and read with a PerkinElmer Trilux MicroBeta© scintillation counter after 2.5 to 12 hours of incubation/settling time at room temperature.
(§4) Data are analyzed using four-parameter (curve maximum, curve minimum, IC50, Hill slope) nonlinear regression routines (Genedata Screener, version 12.0.4, Genedata AG, Basal, Switzerland). […] Values for Ki are reported as the geometric mean, with error expressed as the standard error of the mean (SEM) and n is equal to the number of independent replicates (determined in assays performed on different days). […] The Ki Ratio is a rapid indication of the apparent affinity of a peptide compared to the native control peptide. […] SEM is only calculated when n=2 or greater non-qualified results exist. Means are expressed as GeoMetric means with the standard error of the mean (SEM) and the number of replicates (n) indicated in parenthesis.

human Gcg receptor = biological target: T2, human Gcg receptor (Homo sapiens, UniProt P47871); assay: [125I]-Glucagon binding (SPA), human Gcg receptor; conditions: read-out: hGLcgR Ki, nM (SEM, n)
T2 construct: expressed in transfected cells; crude membranes
Experimental: as §1, §2, §3
The human Gcg receptor binding assays are performed using a Scintillation Proximity Assay (SPA) format with wheat germ agglutinin (WGA) beads (Perkin Elmer). The binding buffer contains 25 mM 4-(2-hydroxyethyl)-1-piperazineethanesulfonic acid (HEPES), pH 7.4, 2.5 mM CaCl2, 1 mM MgCl2, 0.1% (w/v) bacitracin (Research Products), 0.003% (w/v) Polyoxyethylenesorbitan monolaurate (TWEEN©-20), and Roche Complete™ Protease Inhibitors without EDTA. […] Plates are sealed and mixed on a plate shaker (setting 6) for 1 minute and read with a PerkinElmer Trilux MicroBeta© scintillation counter after 12 hours of incubation/settling time at room temperature.
as §4

human GLP-1R = human GLP-1R (Homo sapiens, UniProt P43220); assay: [125I]-GLP-1 binding (SPA), human GLP-1 receptor; set-up: expressed in transfected cells; crude membranes; conditions: read-out: hGLP1R Ki, (nM) (SEM, n)
Experimental: as §1, §2, §3
The binding buffer contains 25 mM HEPES, pH 7.4, 2.5 mM CaCl2, 1 mM MgCl2, 0.1% (w/v) bacitracin, 0.003% (w/v) TWEEN©-20, and Roche Complete™ Protease Inhibitors without EDTA.
as §4

[1] = biological target: T3, gastric inhibitory peptide receptor (GIPR) (Homo sapiens, UniProt P48546); assay: cAMP pharmacological functional assay in presence of casein, hGIPR; format: cell-based; conditions: HEK293 cells expressing hGIPR, 0.1% Casein, geometric mean; read-out: hGIPR cAMP Rel EC50 nM (SEM, n)
T3 sequence (P48546 22-466): T1 sequence (P48546 22-466)

[2] = biological target: human GLP-1 receptor (GLP-1R) (Homo sapiens, UniProt P43220); assay: cAMP pharmacological functional assay in presence of casein, hGLP-1R; format: cell-based; conditions: HEK293 cells expressing hGLP-1R, 0.1% Casein, geometric mean; read-out: hGLP1R cAMP Rel EC50 nM (SEM, n)
Sequence of human GLP-1 receptor (GLP-1R) (P43220 24-463): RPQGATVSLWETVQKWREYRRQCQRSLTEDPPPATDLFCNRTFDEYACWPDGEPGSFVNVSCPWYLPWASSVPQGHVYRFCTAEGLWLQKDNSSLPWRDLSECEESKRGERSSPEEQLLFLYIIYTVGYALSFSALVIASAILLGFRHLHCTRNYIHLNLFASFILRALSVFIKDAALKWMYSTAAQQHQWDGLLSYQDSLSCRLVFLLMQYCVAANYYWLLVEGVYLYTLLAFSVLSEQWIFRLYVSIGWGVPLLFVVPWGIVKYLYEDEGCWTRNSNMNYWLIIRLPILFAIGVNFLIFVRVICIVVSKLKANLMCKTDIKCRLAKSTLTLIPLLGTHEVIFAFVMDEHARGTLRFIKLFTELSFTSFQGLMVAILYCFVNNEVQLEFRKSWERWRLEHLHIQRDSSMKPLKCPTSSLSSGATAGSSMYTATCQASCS

T2 sequence (P47871 26-477): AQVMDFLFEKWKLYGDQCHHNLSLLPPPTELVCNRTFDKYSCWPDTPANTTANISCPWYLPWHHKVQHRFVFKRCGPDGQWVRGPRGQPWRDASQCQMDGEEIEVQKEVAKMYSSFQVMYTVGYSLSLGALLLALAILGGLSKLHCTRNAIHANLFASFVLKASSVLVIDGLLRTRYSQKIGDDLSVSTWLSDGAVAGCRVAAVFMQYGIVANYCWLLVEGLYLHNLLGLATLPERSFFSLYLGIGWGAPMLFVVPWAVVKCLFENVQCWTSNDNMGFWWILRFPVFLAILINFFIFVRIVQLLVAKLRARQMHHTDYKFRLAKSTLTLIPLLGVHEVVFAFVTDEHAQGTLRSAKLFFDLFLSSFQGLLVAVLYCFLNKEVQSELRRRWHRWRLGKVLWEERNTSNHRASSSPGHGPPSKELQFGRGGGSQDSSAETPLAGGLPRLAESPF
Sequence of human GLP-1R (P43220 24-463): as the sequence (P43220 24-463) above

SMILES | Ki (human GIP receptor) [nM] | Ki (human Gcg receptor) [nM] | Ki (human GLP-1R) [nM] | EC50 [1] [nM] | EC50 [2] [nM]
CC[C@H](C)[C@H](NC(=O)[C@H](CC(C)C)NC(=O)[C@H](Cc1ccc(O)cc1)NC(=O)[C@@H](CCC(=O)O)NC(=O)[C@@H](NC(=O)[C@H](Cc1ccccc1)NC(=O)[C@H](CCC(=O)O)NC(=O)C(C)(C)NC(=O)[C@H](CCC(N)=O)NC(=O)[C@H](C)NC(=O)[C@H](CCCCNC(=O)COCCOCCNC(=O)COCCOCCNC(=O)CC[C@H](NC(=O)CCCCCCCCCCCCCCCCCCC(=O)O)C(=O)O)NC(=O)[C@H](CCC(=O)O)NC(=O)[C@H](CC(=O)O)NC(=O)[C@H](CC(C)C)NC(=O)[C@](C)(CC(C)C)NC(=O)[C@@H](NC(=O)[C@H](CO)NC(=O)[C@H](CC(C)C)NC(=O)[C@H](CC(=O)O)NC(=O)[C@H](CO)NC(=O)[C@@H](NC(=O)[C@](C)(Cc1ccccc1F)NC(=O)[C@@H](NC(=O)CNC(=O)[C@H](CCC(=O)O)NC(=O)C(C)(C)NC(=O)[C@@H](N)Cc1ccc(O)cc1)[C@@H](C)O)[C@@H](C)O)[C@@H](C)CC)[C@@H](C)CC)C(=O)N[C@@H](CCC(=O)O)C(=O)NCC(=O)NCC(=O)N1CCC[C@H]1C(=O)N[C@@H](CO)C(=O)N[C@@H](CO)C(=O)NCC(=O)N[C@@H](C)C(=O)N1CCC[C@H]1C(=O)N1CCC[C@H]1C(=O)N1CCC[C@H]1C(=O)N[C@@H](CO)C(N)=O [Example 183] (H-Y[Aib]EGT[αMePhe(2-F)]TSDLSI[αMeL]LDEK([AEEA-AEEA-γGlu-C20 diacid])AQ[Aib]EFI[dE]YLIEGGPSSGAPPPS-NH2) | 0.0869 | 304 | 4.11 | 0.0615 | –
CC[C@H](C)[C@H](NC(=O)[C@H](CC(C)C)NC(=O)[C@H](Cc1ccc(O)cc1)NC(=O)[C@H](CCC(=O)O)NC(=O)[C@@H](NC(=O)[C@H](Cc1ccccc1)NC(=O)[C@@H](NC(=O)C(C)(C)NC(=O)[C@H](CCC(N)=O)NC(=O)[C@H](C)NC(=O)[C@H](CCCCNC(=O)COCCOCCNC(=O)COCCOCCNC(=O)CC[C@H](NC(=O)CCCCCCCCCCCCCCCCCCC(=O)O)C(=O)O)NC(=O)[C@H](CCCCN)NC(=O)[C@H](CC(=O)O)NC(=O)[C@H](CC(C)C)NC(=O)[C@](C)(CC(C)C)NC(=O)[C@@H](NC(=O)[C@H](CO)NC(=O)[C@H](Cc1ccc(O)cc1)NC(=O)[C@H](CC(=O)O)NC(=O)[C@H](CO)NC(=O)[C@@H](NC(=O)[C@](C)(Cc1ccccc1)NC(=O)[C@@H](NC(=O)CNC(=O)[C@H](CCC(=O)O)NC(=O)C(C)(C)NC(=O)[C@@H](N)Cc1ccc(O)cc1)[C@@H](C)O)[C@@H](C)O)[C@@H](C)CC)[C@@H](C)O)[C@@H](C)CC)C(=O)N[C@@H](CCC(=O)O)C(=O)NCC(=O)NCC(=O)N1CCC[C@H]1C(=O)N[C@@H](CO)C(=O)N[C@@H](CO)C(=O)NCC(=O)N[C@@H](C)C(=O)N1CCC[C@H]1C(=O)N1CCC[C@H]1C(=O)N1CCC[C@H]1C(=O)N[C@@H](CO)C(N)=O [Example 139] (H-Y[Aib]EGT[αMeF]TSDYSI[αMeL]LDKK([AEEA-AEEA-γGlu-C20 diacid])AQ[Aib]TFIEYLIEGGPSSGAPPPS-NH2) | 0.036 | 105 | – | 0.037 | 0.0417
CC[C@H](C)[C@H](NC(=O)[C@H](CC(C)C)NC(=O)[C@H](Cc1ccc(O)cc1)NC(=O)[C@@H](CCC(=O)O)NC(=O)[C@@H](NC(=O)[C@H](Cc1ccccc1)NC(=O)[C@H](CCC(=O)O)NC(=O)C(C)(C)NC(=O)[C@H](CCC(N)=O)NC(=O)[C@H](C)NC(=O)[C@H](CCCCNC(=O)COCCOCCNC(=O)COCCOCCNC(=O)CC[C@H](NC(=O)CCCCCCCCCCCCCCCCCCC(=O)O)C(=O)O)NC(=O)[C@H](CCC(=O)O)NC(=O)[C@H](CC(=O)O)NC(=O)[C@H](CC(C)C)NC(=O)[C@](C)(CC(C)C)NC(=O)[C@@H](NC(=O)[C@H](CO)NC(=O)[C@H](Cc1cccnc1)NC(=O)[C@H](CC(=O)O)NC(=O)[C@H](CO)NC(=O)[C@@H](NC(=O)[C@](C)(Cc1ccccc1F)NC(=O)[C@@H](NC(=O)CNC(=O)[C@H](CCC(=O)O)NC(=O)C(C)(C)NC(=O)[C@@H](N)Cc1ccc(O)cc1)[C@@H](C)O)[C@@H](C)O)[C@@H](C)CC)[C@@H](C)CC)C(=O)N[C@@H](CCC(=O)O)C(=O)NCC(=O)NCC(=O)N1CCC[C@H]1C(=O)N[C@@H](CO)C(=O)N[C@@H](CO)C(=O)NCC(=O)N[C@@H](C)C(=O)N1CCC[C@H]1C(=O)N1CCC[C@H]1C(=O)N1CCC[C@H]1C(=O)N[C@@H](CO)C(N)=O [Example 181] (H-Y[Aib]EGT[αMePhe(2-F)]TSD[3Pal]SI[αMeL]LDEK([AEEA-AEEA-γGlu-C20 diacid])AQ[Aib]EFI[dE]YLIEGGPSSGAPPPS-NH2) | 0.145 | 413 | 7.28 | – | –
CC[C@H](C)[C@H](NC(=O)[C@H](CC(C)C)NC(=O)[C@H](Cc1ccc(O)cc1)NC(=O)[C@@H](CCC(=O)O)NC(=O)[C@@H](NC(=O)[C@H](Cc1ccccc1)NC(=O)[C@H](CCC(=O)O)NC(=O)C(C)(C)NC(=O)[C@H](CCC(N)=O)NC(=O)[C@H](C)NC(=O)[C@H](CCCCNC(=O)COCCOCCNC(=O)COCCOCCNC(=O)CC[C@H](NC(=O)CCCCCCCCCCCCCCCCC(=O)O)C(=O)O)NC(=O)[C@H](CCC(=O)O)NC(=O)[C@H](CC(=O)O)NC(=O)[C@H](CC(C)C)NC(=O)[C@](C)(CC(C)C)NC(=O)[C@@H](NC(=O)[C@H](CO)NC(=O)[C@H](Cc1ccncc1)NC(=O)[C@H](CC(=O)O)NC(=O)[C@H](CO)NC(=O)[C@@H](NC(=O)[C@](C)(Cc1ccccc1F)NC(=O)[C@@H](NC(=O)CNC(=O)[C@H](CCC(=O)O)NC(=O)C(C)(C)NC(=O)[C@@H](N)Cc1ccc(O)cc1)[C@@H](C)O)[C@@H](C)O)[C@@H](C)CC)[C@@H](C)CC)C(=O)N[C@@H](CCC(=O)O)C(=O)NCC(=O)NCC(=O)N1CCC[C@H]1C(=O)N[C@@H](CO)C(=O)N[C@@H](CO)C(=O)NCC(=O)N[C@@H](C)C(=O)N1CCC[C@H]1C(=O)N1CCC[C@H]1C(=O)N1CCC[C@H]1C(=O)N[C@@H](CO)C(N)=O [Example 204] (H-Y[Aib]EGT[αMePhe(2-F)]TSD[4Pal]SI[αMeL]LDEK([AEEA-AEEA-γGlu-C18 diacid])AQ[Aib]EFI[dE]YLIEGGPSSGAPPPS-NH2) | 0.0704 | > 1150 | – | 0.0424 | 0.0654
